Measured values: patent US9890111B2, “Crystal structure of bifunctional transglycosylase PBP1b from E. coli and inhibitors thereof” (Academia Sinica, priority 2008, dated 2018)
pIC50, pKd: −log10 of the molar value. ≈ marks a conversion by molar mass, not a printed value.

Legend:
E. coli PBP1b = E. coli PBP1b (Escherichia coli, UniProt P02919); assay: Fluorescence anisotropy (FA) binding assay; details: library screening
Protocol: Fluorescence anisotropy measurements were carried out in triplicates in the wells of 384-well or 1536-well plates using a fluorescence detector that is capable to measure fluorescence anisotropy or fluorescencepolarization. For examples, a laser fluorimetry equipped with a 488 nm laser (IsoCyte) from Blueshift Biotech, Inc., (Sunnyvale, Calif., USA) of aViewlux from Perkin Elmer has been used for the application. Various buffers, salts, pH values, and divalent cations (Ca^++, Mg^++, Co^++) were optimized for fluorescence anisotropy measurements. KD and KI determinations were carried out in 100 mM NaCl, 10 mM Tris, pH 8.0. Fluorescence anisotropy values (A) were calculated using the equation: A=(I∥−G*I^⊥)/(I∥+2G*I^⊥), where I∥ is the fluorescence intensity of emitted light parallel to excitation, I^⊥ is the fluorescence intensity of emitted light perpendicular to excitation, and G is the […] that corrects for instrument bias. The G factor is experimentally determined for each run using the probe-only well as the basal anisotropy.
A high-throughput FA assay for transglycosylase was performed as disclosed in co-pending U.S. application Ser. No. 12/354,717. Concentration-dependent changes in fluorescence anisotropy was observed when E. coli PBP1b bound to F-Moe. The maximum anisotropy value was 0.2. […]
KI and IC50 values were determined from competitive displacement assay. […]

[1] = tested on: Mycobacterium smegmatis (ATCC11565, MS); assay: Minimal inhibitory concentration (MIC), MS; type: cell-based; details: for MIC: Mycolicibacterium smegmatis, ATCC11565, Mycobacterium smegmatis ATCC11565, read-out: MIC MS; for MIC MS: Mycobacterium smegmatis ATCC11565
Protocol: (§1) The minimal inhibitory concentration (MIC) of tested compounds was determined following the NCCLS standard. The experiments were conducted in 96-well microtiter plates using two-fold dilutions in Muller-Hilton broth with (Streptococcus pneumonia) or without blood (Bacillus subtilis, Enterococcus faecalis, Staphylococcus aureus, Escherichia coli, MRSA, Actinetobacter baumannii, Pseudomonas aeruginosa, Stenotrophomonas maltophilia, and Mycobacterium smegmatis). Exponentially growing cells at 5×10^5 cells/ml were incubated with test compounds at various concentrations. After an 18 h to 24 h incubation at 37° C., MIC was determined as the minimal concentration of the compound that prevents bacterial growth.

[2] = tested on: Escherichia coli (ATCC 25922, EC); assay: Minimal inhibitory concentration (MIC), EC; type: cell-based; details: Escherichia coli ATCC 25922; for MIC: ATCC25922, read-out: MIC EC
Protocol: as §1

[3] = tested on: methicillin-resistant Staphylococcus aureus (ATCC33592, MRSA); assay: Minimal inhibitory concentration (MIC), MRSA; type: cell-based; details: methicillin-resistant Staphylococcus aureus ATCC33592; for MIC: Staphylococcus aureus, read-out: MIC MRSA
Protocol: as §1

[4] = target: T1, penicillin-binding protein 1b from E. coli (transglycosylase) (Escherichia coli, UniProt P02919); assay: Lipid II polymerization / transglycosylase (TG) activity assay; type: biochemical; details: for remaining activity at 50 µM: read-out: TG Activity at various concentration of cmpd: 50 μM; for remaining activity at 100 µM: read-out: TG Activity at various concentration of cmpd: 100 μM; for TG Activity at various concentration of cmpd: 50 μM: 50 μM compound; for TG Activity at various concentration of cmpd: 100 μM: 100 μM compound
T1 construct: PBP1b[58-804] was amplified from E. coli genomic DNA and cloned into the expression vector pET15b; His6 (N, cleaved yes); made in house; host or cells: E. coli BL21(DE3)
T1 sequence (P02919 58-804): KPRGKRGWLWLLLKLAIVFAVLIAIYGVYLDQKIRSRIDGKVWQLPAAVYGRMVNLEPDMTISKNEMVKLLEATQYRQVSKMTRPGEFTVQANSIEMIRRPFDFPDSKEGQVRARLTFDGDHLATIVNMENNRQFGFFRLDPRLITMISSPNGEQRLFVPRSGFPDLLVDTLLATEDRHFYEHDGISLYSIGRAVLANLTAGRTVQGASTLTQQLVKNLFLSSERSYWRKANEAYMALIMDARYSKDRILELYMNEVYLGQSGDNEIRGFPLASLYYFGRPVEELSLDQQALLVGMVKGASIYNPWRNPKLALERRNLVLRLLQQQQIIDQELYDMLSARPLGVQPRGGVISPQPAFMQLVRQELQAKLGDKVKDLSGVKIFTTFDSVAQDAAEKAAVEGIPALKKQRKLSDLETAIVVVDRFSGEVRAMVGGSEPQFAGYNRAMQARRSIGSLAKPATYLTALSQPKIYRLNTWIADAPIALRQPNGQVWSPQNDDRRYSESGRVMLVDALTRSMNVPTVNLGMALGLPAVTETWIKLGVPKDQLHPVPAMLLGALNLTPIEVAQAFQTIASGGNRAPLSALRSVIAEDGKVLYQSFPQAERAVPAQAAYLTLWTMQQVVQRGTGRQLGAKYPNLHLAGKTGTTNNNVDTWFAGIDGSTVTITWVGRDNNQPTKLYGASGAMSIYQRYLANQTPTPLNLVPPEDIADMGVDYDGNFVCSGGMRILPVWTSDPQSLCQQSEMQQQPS
Protocol: Lipid II polymerization assays were carried out by incubating 100 μM fluorophore-labeled lipid II and penicillin-binding protein 1b from E. coli in tubes containing 10 ng/μL N-acetyl muramidase in 50 mM Tris.HCl (pH 8.0), 10 mM MgCl2, 0.1% Triton X-100, 10% DMSO, and 15% MeOH for 30 minutes (Van Nieuwenhze et al. J Am Chem Soc 2002, 124, 3656.). The fluorophore can be dansyl chloride, NBD, BODIPY, fluorescein. Reaction supernatants were then injected onto an anion-exchange HPLC column (SAX1, Supelco Co.) and eluted with a linear gradient of ammonium acetate (20 mM to 0.5 M) in methanol. The eluant was monitored for fluorescence with λex=466 nm and λem=535 nm.
Purified protein was concentrated in 20 mM Tris-HCl (pH 8.0), 300 mM NaCl, and 1 mM DDM. Instead of using Dansyl lipid II, 6-(N-(7-nitrobenz-2-oxa-1,3-diazol-4-yl)amino) hexanoyl (NBD)-labeled Lipid II was prepared as described (Taubes G (2008) Science 321:356-361; Payne D J (2008) Science 321:1644-1645) and used as a substrate to measure TG enzymatic activity, with approach similar to what has been described previously (Holtje J V (1998) Microbiol Mol Biol Rev 62:181-203). Assays were carried out by using the following condition: NBD-Lipid II, 20 nM protein, 50 mM Tris HCl (pH 8.0), 10 mMCaCl2, 0.085% decyl PEG (Anatrace), and 15% MeOH at 37° C. for 0, 1, 3, 5, 7, 9, 20, and 30 min. The concentration of NBD-Lipid II was varied from 1 to 100 μM to determine the rate of the TG activity. After the reaction, 200 μM moenomycin was added to stop the reaction, and 13 μM muramidase (Sigma-Aldrich) was added to digest the TG products to result in NBD-Lipid II without lipid tails. The fluorescent signal decrease of substrate and increase of NBD-Lipid II without lipid tails were detected by anion-exchange column SAX1 (Supelco) on HPLC (Hitachi). The elution procedures was a linear gradient of ammonium acetate (20 mM to 1 M) in MeOH monitored at λexcitation=466 nm and λemission=535 nm. The kinetic parameter was estimated by following the Michaelis-Menten equation. To investigate the importance of transmembrane (TM) helix, PBP1b and PBP1bΔTM (residues Met-1 to Leu-87 were removed) were extracted with the buffer containing 20 mM Tris-HCl (pH 8.0), 300 mM NaCl, and 13 mM FOS-CHOLINE-14 (Anatrace). The protein was purified by nickel chelation chromatography in the presence of 1 mM DDM. The activity assay was carried out by using the following condition: 12 μM NBD-Lipid II, 20 nM protein, 50 mM Tris-HCl (pH 8.0), 10 mM CaCl2, 0.085% decyl PEG, and 15% MeOH at 37° C. for time 0, 1, 3, 5, 7, 9, 20, and 30 min. The initial velocity was used to compare the activity of full-length PBP1b and PBP1bΔTM.

[5] = tested on: Staphylococcus aureus (ATCC29213, SA); assay: Minimal inhibitory concentration (MIC), SA; type: cell-based; details: for MIC: Staphylococcus aureus, ATCC29213, Staphylococcus aureus ATCC29213, read-out: MIC SA; for MIC SA: Staphylococcus aureus ATCC29213
Protocol: as §1

PBP = PBP (Escherichia coli, UniProt P02919); assay: PBP binding affinity by SPR; details: read-out: steady-state affinity (KD)
PBP, sequence (P02919 58-804): as above
From the text: Candidate compounds to be tested were labeled with fluorescein (6-carboxyfluoresein N-hydroxysuccinimide ester) under basic conditions to prepare the fluorescent probe. One major concern about the fluorescent probe used in the FA assay is the probe itself; either the fluorophore or the structure modification, may interfere with the binding between the targeted protein and the small molecule. Therefore, the PBP binding affinities of Moe A and the fluorescent probe are compared using SPR.

[6] = TG activity remaining (0% = full inhibition)

E. coli PBP1b, sequence (P02919 whole entry): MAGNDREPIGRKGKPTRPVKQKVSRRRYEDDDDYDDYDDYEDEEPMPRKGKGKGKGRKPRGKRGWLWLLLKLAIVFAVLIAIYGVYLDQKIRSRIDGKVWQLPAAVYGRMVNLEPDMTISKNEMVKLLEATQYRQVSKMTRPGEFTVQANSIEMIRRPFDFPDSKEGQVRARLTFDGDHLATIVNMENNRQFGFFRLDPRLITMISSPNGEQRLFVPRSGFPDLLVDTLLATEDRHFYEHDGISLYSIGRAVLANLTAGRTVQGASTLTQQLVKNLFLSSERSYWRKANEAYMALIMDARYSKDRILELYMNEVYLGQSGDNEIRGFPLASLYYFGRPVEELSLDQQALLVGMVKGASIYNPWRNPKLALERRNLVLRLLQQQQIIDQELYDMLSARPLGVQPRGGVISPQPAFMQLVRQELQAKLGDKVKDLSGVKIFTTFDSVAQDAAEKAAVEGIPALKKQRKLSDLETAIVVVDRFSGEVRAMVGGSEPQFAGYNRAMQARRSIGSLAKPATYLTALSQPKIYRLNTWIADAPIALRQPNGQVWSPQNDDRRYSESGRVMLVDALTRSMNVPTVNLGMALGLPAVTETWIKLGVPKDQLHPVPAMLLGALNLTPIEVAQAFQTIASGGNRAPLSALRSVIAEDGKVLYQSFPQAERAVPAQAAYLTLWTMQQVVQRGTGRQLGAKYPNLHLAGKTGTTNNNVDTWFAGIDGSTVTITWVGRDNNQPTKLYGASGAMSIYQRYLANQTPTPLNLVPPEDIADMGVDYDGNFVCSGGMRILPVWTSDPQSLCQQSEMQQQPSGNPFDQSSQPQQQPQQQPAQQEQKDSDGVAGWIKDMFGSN

SMILES | MIC [1] [µg/mL] | MIC [2] [µg/mL] | MIC [3] [µg/mL] | remaining activity at 50 µM [4] [%] | remaining activity at 100 µM [4] [%] | MIC [5] [µg/mL] | MIC MS [1] [µg/mL] | MIC EC [2] [µg/mL] | MIC MRSA [3] [µg/mL] | TG Activity at various concentration of cmpd: 50 μM [4, 6] [%] | TG Activity at various concentration of cmpd: 100 μM [4, 6] [%] | MIC SA [5] [µg/mL] | other results
O=C(Nc1cc(Cl)ccc1Oc1ccccc1)c1cc(Br)cc(Br)c1O [Compound 009] | 0.25 (≈ 0.502 µM) | > 256 | 0.25 (≈ 0.502 µM) | 20 | 0 | 0.5 (≈ 1 µM) | – | – | – | – | – | – | inhibition activity in fluorescence anisotropy (in words) (E. coli PBP1b): showed inhibition activities; pIC50 [4]: 4.35; transglycosylase inhibition activity (in words) [4]: showed inhibition activities; TG Activity at various concentration of cmpd: 25 μM ([4]; 25 μM compound, TG activity remaining (0% = full inhibition)): 100%
O=C(c1ccccc1)c1cc(NC(=O)c2cc(Br)cc(Br)c2O)ccc1Cl [Compound 124] | – | – | – | – | – | – | 1 (≈ 1.96 µM) | >256 | 1 (≈ 1.96 µM) | 100 | 0 | 1 (≈ 1.96 µM) | –
O=C(Nc1cc(Cl)ccc1O)c1ccc(Cl)c(C(=O)c2ccc(Cl)cc2)c1 [Compound 126] | – | – | – | – | – | – | 0.06 (≈ 0.143 µM) | >256 | 0.125 (≈ 0.297 µM) | 100 | 100 | 1 (≈ 2.38 µM) | –
O=C(Nc1cc(Cl)ccc1Cl)c1cc(Br)cc(Br)c1O [Compound 127] | 1 (≈ 2.27 µM) | 64 (≈ 145 µM) | 1 (≈ 2.27 µM) | 100 | 100 | 1 (≈ 2.27 µM) | – | – | – | – | – | – | –
C=C(C/C=C(\C)CCC=C(C)C)CCC(C)(C)/C=C/CC/C(C)=C\CO[C@H](COP(=O)(O)O[C@H]1OC(C(N)=O)[C@@](C)(O)[C@H](OC(N)=O)C1O[C@@H]1OC(CO[C@@H]2OC(CO)[C@@H](O)[C@H](O)C2O)[C@@H](O[C@@H]2OC(C)[C@@H](O[C@@H]3OC(C(=O)NC4=C(O)CCC4=O)[C@H](O)[C@H](O)C3O)[C@H](O)C2NC(C)=O)[C@H](O)C1NC(C)=O)C(=O)O (some centres unmarked) [Moe A, Moenomycin A] | – | – | – | – | – | – | – | – | – | – | – | – | pKd (PBP): 6.36
